US12410152B2, “Oxazole and thioazole-type cullin ring ubiquitin ligase compounds and uses thereof” (Proxygen GmbH, priority 2019, dated 2025)

Assays:
[1] = test system: KBM7 WT and UBE2Mmut cells; assay: Primary phenotypic screen, differential viability KBM7 WT vs UBE2M mutant; format: cell-based, human; conditions: 10 μM and 500 nM, 3 days
[2] = test system: KBM7 WT cells (global proteome); assay: Quantitative expression proteomics (TMT isobaric tagging), drug vs DMSO; format: cell-based, human
Source text: The mechanism by which the assayed molecules re-program a functional CRL4B complex based on the data shown could be that drug binding to CUL4B recruits a neo-substrate directly to the cullin backbone. Alternatively, drug binding could stabilize CUL4B function to boost time intervals where a functionally competent CUL4B complexes can be formed. Here, the word “functional” implies that the CUL4B backbone of this complex needs to be neddylated, and a CUL4B associated E2 ubiquitin-conjugating enzyme (UBE2G1) needs to be bound. FIG. 9 outlines one possible mechanism. Both predicted mechanisms of action would result in a functionally altered CRL4B complex, and thus an altered stability of drug-induced (neo-) substrates. In order to identify target proteins with a decreased abundance or, in other words, target proteins that become degraded by CRL4B after drug treatment, global proteome composition was measured using quantitative expression proteomics (TMT-labeling). In brief, KBM7 cells were drug treated for 12 hours, lysed, and subjected to isobaric tagging. Ensuing proteomics analysis quantified a total of 7,903 proteins at a minimum spectral count of 2. […] Data on essentiality are taken from Hart et al., G3, August 2017 (PMID: 28655737).
50×10^6 KBM7^WT cells per condition were collected, washed four times with ice-cold PBS, the supernatant aspirated and pellets snap-frozen in liquid N2. Each washed cell pellet was lysed separately in 40 μL of freshly prepared lysis buffer as previously described (see Mayor-Ruiz et al., Mol Cell 2019)
Offline Fractionation via RP-HPLC at high pH and 2D-RP/RP Liquid Chromatography Mass Spectrometry were performed as previously described (see Mayor-Ruiz et al., Mol Cell 2019).
Acquired raw data files were processed using the Proteome Discoverer 2.2.0 platform, utilizing the Sequest HT database search engine and Percolator validation software node (V3.04) to remove false positives with a false discovery rate (FDR) of 1% on peptide and protein level under strict conditions. Searches were performed with full tryptic digestion against the human SwissProt database v2017.06 with up to two allowed miscleavage sites. Oxidation (+15.9949 Da) of methionine was set as variable modification, whilst carbamidomethylation (+57.0214 Da) of cysteine residues and TMT 6-plex labelling of peptide N-termini and lysine residues were set as fixed modifications. Data was searched with mass tolerances of ±10 ppm and ±0.02 Da on the precursor and fragment ions, respectively. Results were filtered to include peptide spectrum matches (PSMs) with Sequest HT cross-correlation factor (Xcorr) scores of […] and high peptide confidence assigned by Percolator. MS^2 signal-to-noise values (S/N) values of TMT reporter ions were used to estimate peptide/protein abundance changes. PSMs with precursor isolation interference values of ≥ 50% and average TMT-reporter ion S/N≤10 were excluded from quantitation. Only unique peptides were used for TMT quantitation as well as for TOP3 label-free quantitation. Isotopic impurity correction and TMT channel-normalization based on total peptide amount were applied. For statistical analysis and p-value calculation, the integrated ANOVA hypothesis test was used. TMT ratios with p-values below 0.01 were considered as significant. Only proteins with >1 peptide detected and >1 unique peptide detected were considered for further analysis. For the calling of destabilized proteins, a log 2 fold change threshold (drug/DMSO) of −0.3 was applied.
Comparison of overall proteome-wide changes in KBM7 cells treated with IC020772.1 (2.5 μM), IC021313.2 (7 μM) or T6938051 (3.5 μM) for 5 h and 12h, using quantitative proteomics based on isobaric tagging.
The protein names in Table 4, Table 5 and Table 6 refer to the protein names as provided by HUGO Gene Nomenclature Committee (HGNC) database. […]

O=C(CSc1nc2ccccc2[nH]1)Nc1ccc(Cl)cn1 [IC021313.2]
hit in differential viability screen [1]: stood out in terms of fold-change significance | number of proteins significantly downregulated (log2FC < -0.3), destabilized proteins ([2]; KBM7 cells, 12 hours, ~10xEC50, 7,903 proteins quantified): 839 | number of downregulated proteins known to be implicated in KBM7 proliferation (essential for KBM7 viability) ([2]; KBM7 cells, 12 hours, essentiality from Hart et al. 2017): 183 | logFC (IC021313.2/DMSO) ([2]; protein AKAP11 (Q9UKA4), essential: false): −0.3004 | logFC (IC021313.2/DMSO) ([2]; protein ALKBH3 (Q96Q83-1), essential: false): −0.3129 | logFC (IC021313.2/DMSO) ([2]; protein ALKBH4 (Q9NXW9-1), essential: false): −0.3111 | logFC (IC021313.2/DMSO) ([2]; protein ATXN7L3B (Q96GX2), essential: false): −0.3111 | logFC (IC021313.2/DMSO) ([2]; protein BMT2 (Q1RMZ1), essential: false): −0.3111 | logFC (IC021313.2/DMSO) ([2]; protein C10orf88 (Q9H8K7), essential: false): −0.3004 | logFC (IC021313.2/DMSO) ([2]; protein CCNC (P24863-1), essential: false): −0.3129 | logFC (IC021313.2/DMSO) ([2]; protein CHMP4B (Q9H444), essential: true): −0.3129 | logFC (IC021313.2/DMSO) ([2]; protein CIT (O14578-4), essential: false): −0.3147 | logFC (IC021313.2/DMSO) ([2]; protein CREB1 (P16220-1), essential: false): −0.3147 | logFC (IC021313.2/DMSO) ([2]; protein CUEDC2 (Q9H467), essential: false): −0.3129 | logFC (IC021313.2/DMSO) ([2]; protein DCUN1D4 (Q92564-3), essential: false): −0.3004 | logFC (IC021313.2/DMSO) ([2]; protein DGCR14 (Q96DF8), essential: true): −0.3129 | logFC (IC021313.2/DMSO) ([2]; protein DSG2 (Q14126), essential: false): −0.3111 | logFC (IC021313.2/DMSO) ([2]; protein EIF4B (P23588-1), essential: false): −0.3129 | logFC (IC021313.2/DMSO) ([2]; protein ENTPD6 (O75354-1), essential: false): −0.3004 | logFC (IC021313.2/DMSO) ([2]; protein EPN1 (Q9Y6I3-2), essential: false): −0.3022 | logFC (IC021313.2/DMSO) ([2]; protein FADS1 (O60427-1), essential: false): −0.3147 | logFC (IC021313.2/DMSO) ([2]; protein FAM122A (Q96E09), essential: true): −0.3022 | logFC (IC021313.2/DMSO) ([2]; protein GTF2H1 (P32780-1), essential: true): −0.3022 | logFC (IC021313.2/DMSO) ([2]; protein GUCY1A3 (Q02108-1), essential: false): −0.3129 | logFC (IC021313.2/DMSO) ([2]; protein KIF15 (Q9NS87-1), essential: false): −0.3022 | logFC (IC021313.2/DMSO) ([2]; protein NCAPD2 (Q15021), essential: true): −0.3094 | logFC (IC021313.2/DMSO) ([2]; protein NDRG3 (Q9UGV2-1), essential: false): −0.3111 | logFC (IC021313.2/DMSO) ([2]; protein NUFIP1 (Q9UHK0), essential: true): −0.3129 | logFC (IC021313.2/DMSO) ([2]; protein PFDN5 (Q99471-1), essential: false): −0.3111 | logFC (IC021313.2/DMSO) ([2]; protein PHF8 (Q9UPP1-1), essential: false): −0.3022 | logFC (IC021313.2/DMSO) ([2]; protein PLSCR1 (O15162-1), essential: false): −0.3111 | logFC (IC021313.2/DMSO) ([2]; protein PO1A (Q8NBT0-1), essential: false): −0.3022 | logFC (IC021313.2/DMSO) ([2]; protein PPIL4 (Q8WUA2), essential: false): −0.3004 | logFC (IC021313.2/DMSO) ([2]; protein PSD4 (Q8NDX1-1), essential: false): −0.3022 | logFC (IC021313.2/DMSO) ([2]; protein PUS3 (Q9BZE2), essential: false): −0.3022 | logFC (IC021313.2/DMSO) ([2]; protein PVR (P15151-1), essential: false): −0.3004 | logFC (IC021313.2/DMSO) ([2]; protein PYM1 (Q9BRP8-1), essential: false): −0.3022 | logFC (IC021313.2/DMSO) ([2]; protein RAD54L (Q92698), essential: false): −0.3004 | logFC (IC021313.2/DMSO) ([2]; protein RASSF5 (Q8WWW0-2), essential: false): −0.3022 | logFC (IC021313.2/DMSO) ([2]; protein RPS17 (P08708), essential: true): −0.3094 | logFC (IC021313.2/DMSO) ([2]; protein SKP2 (Q13309-1), essential: false): −0.3111 | logFC (IC021313.2/DMSO) ([2]; protein SLC10A4 (Q96EP9), essential: false): −0.3111 | logFC (IC021313.2/DMSO) ([2]; protein SLCO4A1 (Q96BD0-1), essential: false): −0.3004 | logFC (IC021313.2/DMSO) ([2]; protein SUV39H1 (O43463-2), essential: false): −0.3004 | logFC (IC021313.2/DMSO) ([2]; protein TANC2 (Q9HCD6-2), essential: false): −0.3129 | logFC (IC021313.2/DMSO) ([2]; protein TFAP4 (Q01664), essential: true): −0.3094 | logFC (IC021313.2/DMSO) ([2]; protein USP12 (O75317), essential: false): −0.3004 | logFC (IC021313.2/DMSO) ([2]; protein WDR76 (Q9H967), essential: false): −0.3004 | logFC (IC021313.2/DMSO) ([2]; protein ZNF770 (Q6IQ21), essential: false): −0.3004 | logFC (IC021313.2/DMSO) ([2]; protein ZWILCH (Q9H900-1), essential: false): −0.3022
